Measurements published in US20090149485A1, “PYRIMIDINEDIONES AS TYROSINE KINASE INHIBITORS” (Jubilant Biosys Limited, priority 2006, published 2009).

Tests used:
[1] = target: T1, GSK3-alpha (Homo sapiens, UniProt P49840); experiment: GSK3-alpha Kinase-Glo Plus luminescent kinase assay; assay type: biochemical; conditions: 10 μM compound, n=3, read-out: % Inhibition at 10 μM α
T1 construct: purchased Upstate 14-492
Procedure: (§1) GSK3 assays were performed using Kinase-Glo® Plus Luminescent Kinase Assay Kit (Promega V3772/3/4 P), in assay buffer (50 mM HEPES, 30 mM Magnesium acetate, 1 mM EDTA and 1 mM EGTA, pH 7.5) in white 96-well-Optiplates (Perkin Elmer). In a typical assay reaction mix (40 μl final volume) contained 10 μl of test compound (dissolved in DMSO), 10 μl of GSM peptide substrate (Upstate Cat#12-533) 20M-GSK3-beta; 25 μM-GSK3-alpha were added followed by 10 μl of enzyme 40 ng/well-GSK3-beta (Upstate Cat#14-306); 30 ng/well-GSK3-alpha (Upstate Cat#14-492) and 1 μM ATP. After incubation at room temperature for 30 minutes, 40 μl of Kinase-Glo reagent was added to stop the reaction, followed by another 5 minutes incubation at room temperature. Luminescence was measured using Wallac 1450 MicroBeta® TriLux (PerkinElmer) Liquid Scintillation and Luminescence Counter. The activity is expressed as a difference of the consumed ATP and total ATP.

[2] = target: T2, GSK3-beta (Homo sapiens, UniProt P49841); experiment: GSK3-beta Kinase-Glo Plus luminescent kinase assay; assay type: biochemical; conditions: 10 μM compound; for inhibition at 10 µM: n=4, read-out: % Inhibition at 10 μM β
T2 construct: purchased Upstate 14-306
Procedure: To analyze the activity of the compounds, the said compounds were subjected to biochemical assays. The biochemical assays as performed by the undermentioned methods are used to evaluate the potency of the compounds. This potency data is the indication of the bioactivity of the organic compounds which are described as inhibitors of GSK3beta.
as §1

T1 sequence (P49840 whole entry): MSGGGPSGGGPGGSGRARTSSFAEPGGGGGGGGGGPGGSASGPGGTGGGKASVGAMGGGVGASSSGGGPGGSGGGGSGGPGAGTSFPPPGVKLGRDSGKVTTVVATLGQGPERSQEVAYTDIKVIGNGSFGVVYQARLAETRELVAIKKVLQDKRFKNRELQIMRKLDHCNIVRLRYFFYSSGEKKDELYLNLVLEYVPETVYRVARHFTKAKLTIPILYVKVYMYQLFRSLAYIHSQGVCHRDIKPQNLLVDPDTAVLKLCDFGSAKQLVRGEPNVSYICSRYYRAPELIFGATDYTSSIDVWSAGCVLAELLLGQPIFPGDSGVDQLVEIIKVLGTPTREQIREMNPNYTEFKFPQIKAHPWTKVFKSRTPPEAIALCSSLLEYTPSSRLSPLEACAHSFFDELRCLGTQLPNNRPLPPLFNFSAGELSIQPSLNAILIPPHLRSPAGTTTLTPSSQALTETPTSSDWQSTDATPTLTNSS
T2 sequence (P49841 whole entry): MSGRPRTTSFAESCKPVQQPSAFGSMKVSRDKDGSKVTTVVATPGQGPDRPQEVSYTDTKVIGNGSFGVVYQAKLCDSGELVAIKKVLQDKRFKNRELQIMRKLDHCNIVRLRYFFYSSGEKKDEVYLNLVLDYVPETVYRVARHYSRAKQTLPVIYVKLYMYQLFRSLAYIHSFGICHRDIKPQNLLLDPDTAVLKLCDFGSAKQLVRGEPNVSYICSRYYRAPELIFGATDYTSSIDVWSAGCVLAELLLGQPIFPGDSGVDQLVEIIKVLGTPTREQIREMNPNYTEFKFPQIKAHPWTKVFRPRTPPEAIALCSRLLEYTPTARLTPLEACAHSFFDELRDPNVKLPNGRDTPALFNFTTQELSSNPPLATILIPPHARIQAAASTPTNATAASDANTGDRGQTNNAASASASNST

| inhibition at 10 µM [1] | inhibition at 10 µM [2] | % Inhibition at 10 μM β ([2]; n=4, 10 µM) | Compound |
| --- | --- | --- | --- |
| 9% | 13% |  | CCOC(=O)Cn1cc(-c2ccco2)c(=O)[nH]c1=O [Compound 1, (2,4-Dioxo-5-furan-2-yl-3,4-dihydro-2H-pyrimidin-1-yl)-acetic Acid Ethyl Ester] |
| 68% | 77% |  | CCOC(=O)Cn1cc(-c2cccs2)c(=O)[nH]c1=O [Compound 2, (2,4-Dioxo-5-thiophen-2-yl-3,4-dihydro-2H-pyrimidin-1-yl)-acetic acid Ethyl Ester] |
| 11% | 66% | 68% | O=c1[nH]c(=O)n(Cc2ccc(F)cc2)cc1-c1cccs1 [Compound 3, 1-(4-Fluoro-benzyl)-5-thiophen-2-yl-1H-pyrimidine-2,4-dione] |
| 72% | 56% |  | O=c1[nH]c(=O)n(Cc2ccc(F)cc2)cc1-c1ccco1 [Compound 4, 1-(4-Fluoro-benzyl)-5-furan-2-yl-1H-pyrimidine-2,4-dione] |
| 17% | 46% |  | N#Cc1ccc(Cn2cc(-c3ccco3)c(=O)[nH]c2=O)cc1 [Compound 5, 4-(2,4-Dioxo-5-furan-2-yl-3,4-dihydro-2H-pyrimidin-1-ylmethyl)-benzonitrile] |
| 10% | 45% |  | O=c1[nH]c(=O)n(Cc2ccccc2)cc1-c1cccs1 [Compound 6, 1-Benzyl-5-thiophen-2-yl-1H-pyrimidine-2,4-dione] |
| 16% | 45% |  | N#Cc1cccc(Cn2cc(-c3cccs3)c(=O)[nH]c2=O)c1 [Compound 7, 3-(2,4-dioxo-5-thiophen-2-yl-3,4-dihydro-2H-pyrimidin-1-ylmethyl)-benzonitrile] |
| 54% | 78% |  | N#Cc1cccc(Cn2c(=O)[nH]cc(-c3cccs3)c2=O)c1 [Compound 8, 3-(2,6-Dioxo-5-thiophen-2-yl-3,6-dihydro-2H-pyrimidin-1-ylmethyl)-benzonitrile] |
| 22% | 64% |  | N#Cc1cccc(Cn2c(=O)[nH]cc(-c3ccco3)c2=O)c1 [Compound 9, 3-(5-furan-2-yl-2,6-dioxo-3,6-dihydro-2H-pyrimidin-1-ylmethyl)-benzonitrile] |
| 6% | 13% |  | O=c1[nH]cc(-c2cccs2)c(=O)n1Cc1ccc(F)cc1 [Compound 10, 3-(4-fluoro-benzyl)-5-thiophen-2-yl-1H-pyrimidine-2,4-dione] |
| 16% | 46% |  | O=c1[nH]cc(-c2ccco2)c(=O)n1Cc1ccc(F)cc1 [Compound 11, 3-(4-fluoro-benzyl)-5-furan-2-yl-1H-pyrimidine-2,4-dione] |
| 55% | 75% |  | O=c1[nH]cc(-c2ccco2)c(=O)n1Cc1ccc([N+](=O)[O-])cc1 [Compound 12, 3-(4-nitro-benzyl)-5-furan-2-yl-1H-pyrimidine-2,4-dione] |
| 13% | 25% |  | CCOC(=O)Cn1c(=O)[nH]cc(-c2ccco2)c1=O [Compound 13, (2,6-dioxo-5-furan-2-yl-3,6-dihydro-2H-pyrimidin-1-yl)-acetic Acid Ethyl Ester] |
| 42% | 63% |  | O=c1[nH]cc(-c2ccco2)c(=O)n1Cc1ccccc1 [Compound 14, 3-benzyl-5-furan-2-yl-1H-pyrimidine-2,4-dione] |
| 14% | 21% |  | N#Cc1ccc(Cn2c(=O)[nH]cc(-c3ccco3)c2=O)cc1 [Compound 15, 4-(2,6-dioxo-5-furan-2-yl-3,6-dihydro-2H-pyrimidin-1-ylmethyl)-benzonitrile] |
| 8% | 58% |  | O=c1[nH]cc(-c2cccs2)c(=O)n1Cc1ccc([N+](=O)[O-])cc1 [Compound 17, 3-(4-nitro-benzyl)-5-thiophen-2-yl-1H-pyrimidine-2,4-dione] |
| 10% | 31% |  | N#Cc1cccc(Cn2cc(-c3ccco3)c(=O)[nH]c2=O)c1 [Compound 18, 3-(5-furan-2-yl-2,4-dioxo-3,4-dihydro-2H-pyrimidin-1-ylmethyl)-benzonitrile] |
| 15% | 23% |  | N#Cc1ccc(Cn2cc(-c3cccs3)c(=O)[nH]c2=O)cc1 [Compound 19, 4-(2,4-dioxo-5-thiophen-2-yl-3,4-dihydro-2H-pyrimidin-1-ylmethyl)-benzonitrile] |
| 11% | 53% |  | O=c1[nH]cc(-c2ccco2)c(=O)n1Cc1cc(F)cc(F)c1 [Compound 20, 3-(3,5-difluoro-benzyl)-5-furan-2-yl-1H-pyrimidine-2,4-dione] |
